How the values were obtained:
Phytophthora infestans = test: whole plant or invertebrate; assay type: in vivo; details: in Solanum lycopersicum, foliar, read-out: control of Phytophthora infestans compared to untreated control
Plasmopara viticola = test: whole plant or invertebrate; assay type: in vivo; details: foliar, read-out: control of Plasmopara viticola compared to untreated control
Pythium ultimum = Pythium ultimum / liquid culture (seedling damping off); assay type: cell-based; details: Globisporangium ultimum, liquid culture in PDB, 24 °C, 2-3 days after application, read-out: control of Pythium ultimum (inhibition of growth, photometric) compared to untreated control
Outline: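 Mycelia fragments and oospores from fresh liquid culture mixed into potato dextrose broth and added to compound in DMSO. Incubated at 24° C.; growth inhibition read photometrically 2–3 days after application.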

COC(=O)Nc1ccc(-c2cnc3ccc(C(=O)N(C)c4ccc(F)c(OC)c4)cn23)cc1 [Compound 158, methyl N-[4-[6-[(4-fluoro-3-methoxy-phenyl)-methyl-carbamoyl]imidazo[1,2-a]pyridin-3-yl]phenyl]carbamate]
≥ 80%: pest or weed control at 200 ppm (Phytophthora infestans) | pest or weed control at 200 ppm (Plasmopara viticola) | inhibition at 20 ppm (Pythium ultimum)

COC(=O)Nc1ccc(-c2cnc3ccc(C(=S)N(C)c4ccc(F)cc4)cn23)cn1 [Compound 164, methyl N-[5-[6-[(4-fluorophenyl)-methyl-carbamothioyl]imidazo[1,2-a]pyridin-3-yl]-2-pyridyl]carbamate]
≥ 80%: pest or weed control at 200 ppm (Phytophthora infestans) | pest or weed control at 200 ppm (Plasmopara viticola) | inhibition at 20 ppm (Pythium ultimum)

COC(=O)Nc1ccc(-c2cnc3c(NC(C)=O)cc(C(=O)N(C)c4ccc(F)c(OC)c4)cn23)cn1 [Compound 169, methyl N-[5-[8-acetamido-6-[(4-fluoro-3-methoxy-phenyl)-methyl-carbamoyl]imidazo[1,2-a]pyridin-3-yl]-2-pyridyl]carbamate]
≥ 80%: pest or weed control at 200 ppm (Phytophthora infestans) | pest or weed control at 200 ppm (Plasmopara viticola) | inhibition at 20 ppm (Pythium ultimum)

CCc1cc(C(=O)N(C)c2ccc(F)cc2)cn2c(-c3ccc(NC(=O)OC)nc3)cnc12 [Compound 170, methyl N-[5-[8-ethyl-6-[(4-fluorophenyl)-methyl-carbamoyl]imidazo[1,2-a]pyridin-3-yl]-2-pyridyl]carbamate]
≥ 80%: pest or weed control at 200 ppm (Phytophthora infestans) | pest or weed control at 200 ppm (Plasmopara viticola) | inhibition at 20 ppm (Pythium ultimum)

COC(=O)Nc1ccc(-c2cnc3c(C)cc(C(=O)N(C)c4ccc(F)c(Cl)c4)cn23)cn1 [Compound 171, methyl N-[5-[6-[(3-chloro-4-fluoro-phenyl)-methyl-carbamoyl]-8-methyl-imidazo[1,2-a]pyridin-3-yl]-2-pyridyl]carbamate]
≥ 80%: pest or weed control at 200 ppm (Phytophthora infestans) | pest or weed control at 200 ppm (Plasmopara viticola) | inhibition at 20 ppm (Pythium ultimum)

COCc1cc(C(=O)N(C)c2ccc(F)cc2)cn2c(-c3ccc(NC(=O)OC)nc3)cnc12 [Compound 172, methyl N-[5-[6-[(4-fluorophenyl)-methyl-carbamoyl]-8-(methoxymethyl)imidazo[1,2-a]pyridin-3-yl]-2-pyridyl]carbamate]
≥ 80%: pest or weed control at 200 ppm (Phytophthora infestans) | pest or weed control at 200 ppm (Plasmopara viticola) | inhibition at 20 ppm (Pythium ultimum)

COCCN(C(=O)c1ccc2ncc(-c3ccc(NC(=O)OC)nc3)n2c1)c1ccc(F)c(OC)c1 [Compound 173, methyl N-[5-[6-[(4-fluoro-3-methoxy-phenyl)-(2-methoxyethyl)carbamoyl]imidazo[1,2-a]pyridin-3-yl]-2-pyridyl]carbamate]
≥ 80%: pest or weed control at 200 ppm (Phytophthora infestans) | pest or weed control at 200 ppm (Plasmopara viticola) | inhibition at 20 ppm (Pythium ultimum)

COC(=O)Nc1ccc(-c2cnc3c(C)cc(C(=O)N(C)c4ccc(F)c(F)c4)cn23)cn1 [Compound 174, methyl N-[5-[6-[(3,4-difluorophenyl)-methyl-carbamoyl]-8-methyl-imidazo[1,2-a]pyridin-3-yl]-2-pyridyl]carbamate]
≥ 80%: pest or weed control at 200 ppm (Phytophthora infestans) | pest or weed control at 200 ppm (Plasmopara viticola) | inhibition at 20 ppm (Pythium ultimum)

CCN(C(=O)c1ccc2ncc(-c3ccc(NC(=O)OC)nc3)n2c1)c1ccc(F)c(OC)c1 [Compound 178, methyl N-[5-[6-[ethyl-(4-fluoro-3-methoxy-phenyl)carbamoyl]imidazo [1,2-a]pyridin-3-yl]-2-pyridyl]carbamate]
≥ 80%: pest or weed control at 200 ppm (Phytophthora infestans) | pest or weed control at 200 ppm (Plasmopara viticola) | inhibition at 20 ppm (Pythium ultimum)
